Assay results taken from US20060116316A1, “Heterocyclic inhibitors of IRES-mediated translation and methods of use thereof” (priority 2004, published 2006).
Where a SMILES comes first, the peptide text is derived from it.

Tested on: HCV IRES
Assay: HCV IRES reporter FACS assay (GFP expression ratio, intein-expressed cyclic peptides)
Assay type: cell-based, Hepatitis C virus
Conditions: 4-mers from mutant intein scaffold, junction Val-His-Asn-X1X2X3X4-Cys-Ser; ratio at least 1.20 = significant activity
Description: [The source words this procedure for another variant and says it was used here with some conditions changed.] Cells producing libraries of cyclic 3-mers and 4-mers (i.e., libraries of cyclic peptides that contain 3 or 4 amino acid residues) were constructed using methods identical to those of Kinsella et al (J Biol. Chem. 2002 277:37512-8), except different oligonucleotides were used for library construction. Clones from this library were screened in an assay shown in FIG. 2 to identify IRES-inhibitory compounds.
In summary, separate cyclic 3-mer and cyclic 4-mer libraries were constructed such that each peptide of the library contained a fixed Ser, Thr or Cys residue (at position 1) and the remaining residues were randomized. For library construction, degenerate oligonucleotides of sequence 5′-[…](AGC/ACC/TGC)(NNK)2 or 3 TGCATCAGCGGCGACAG-3′ were annealed to the primer 5′-[…]-3′ and extended using the Expand PCR kit (Roche Molecular Biochemicals). The double-stranded DNA insert was digested and inserted into the BclI/DrdI sites of DnaBO-e-BFP (ACUC). The plasmid libraries were electroporated into ElectroMAX DH 10B competent E. coli (Invitrogen) for amplification on LB+amp agar medium. […] Expression of the intein is detected by detecting BFP expression. Expression of the intein (and the cyclic peptide produced by the intein) is suppressible by addition of exogenous doxycycline. The amino acid sequence of the junctions of the intein scaffold used in making the 3-mer library is Val-His-Asn-X3 or 4-Cys-Ile-Ser, where X3 or 4 are three or four contiguous amino acids.
Infectious retroviral particles were produced by transfection of 15 µg of each library (as described in Swift et al, (1999). Current Protocols in Immunology Vol. 10.17C, pp. 1-17, Freeman, N.Y.) into approximately 5×10^6 Phoenix-A packaging cells. Each resulting library of retroviral particles was then used to infect 5×10^6 BJAB-S3A11 reporter cells and a FACS based selection was carried out to isolate cells with reduced HCV-IRES reporter output.
In detail, referring to FIG. 2, the cells used in the assay contained an IRES-dependent reporter system. […]. Also present in the cells is a control reporter system for assaying the activity of 5′ cap-dependent translation (the mechanism by which most cellular proteins are normally translated). The control reporter system contains a CMV promoter that drives the transcription of an RNA containing 5′ cap-dependent UTR, operably linked to an RNA encoding RFP (red fluorescent protein). Translation of RFP is dependent on the activity of the 5′ cap-dependent UTR.
Cells containing both the cyclic compound library and the reporter systems described above were first screened for survival upon exposure to diptheria toxin, and then screened by FACS to identify cells that had reduced GFP expression, as compared to RFP expression. Cells were expanded and replica-plated and grown in the presence or absence of dox (100 ng/ml) for four days. Plates were stimulated with IL-4 and GFP expression (relative to RFP) was monitored by flow cytometry. The IRES-inhibitory activity of a peptide is evaluated by calculating the ratio of the geometric mean of GFP expression of peptide positive cells (“peptide pos+” cells i.e., cells not contacted with dox) to the geometric mean of GFP expression of peptide negative cells (“peptide pos−” cells i.e., cells contacted with dox).
Cyclic peptides assigned higher scores have a greater IRES-inhibitory activity.
The number shown in parentheses after each of the amino acid sequences is the IRES-inhibitory activity ratio, as discussed above.

SMILES | IRES-inhibitory activity ratio (geometric mean GFP expression, peptide positive cells / peptide negative cells)
C[C@@H](O)[C@@H]1NC(=O)[C@H](CCCNC(=N)N)NC(=O)[C@H](Cc2ccccc2)NC(=O)[C@H](Cc2c[nH]c3ccccc23)NC1=O [cyclo-TWFR, cyclo[TWFR]] (cyclo(FRTW)) | 1.56

Same assay, conditions: BJAB-S3A11 reporter cells, +/- dox 100 ng/ml four days; library intein junction Val-His-Asn-X1X2X3-Cys-Ile-Ser; ratio at least 1.20 = significant activity

SMILES | IRES-inhibitory activity ratio (geometric mean GFP expression, peptide positive cells / peptide negative cells)
CSCC[C@@H]1NC(=O)[C@H]([C@@H](C)O)NC(=O)[C@H](Cc2ccccc2)NC1=O [cyclo-TMF, cyclo[TMF]] (cyclo(Phe-Thr-Met)) | 1.37
CSCC[C@@H]1NC(=O)[C@H]([C@@H](C)O)NC(=O)[C@H](C(C)C)NC1=O [cyclo-TMV, cyclo[TMV]] (cyclo(Met-Val-Thr)) | 1.56
CSCC[C@@H]1NC(=O)[C@H]([C@@H](C)O)NC(=O)[C@H](Cc2c[nH]c3ccccc23)NC1=O [cyclo-TMW, cyclo[TMW]] (cyclo(Met-Trp-Thr)) | 2.1
C[C@@H](O)[C@@H]1NC(=O)[C@H](Cc2c[nH]c3ccccc23)NC(=O)[C@H](CC(N)=O)NC1=O [cyclo-TQW, cyclo[TQW]] | 1.7
C[C@@H](O)[C@@H]1NC(=O)[C@H](Cc2c[nH]c3ccccc23)NC(=O)[C@H](CO)NC1=O [cyclo-TSW, cyclo[TSW]] (cyclo(Ser-Trp-Thr)) | 1.25
C[C@@H](O)[C@@H]1NC(=O)[C@H](Cc2c[nH]c3ccccc23)NC(=O)[C@H](Cc2ccc(O)cc2)NC1=O [cyclo-TYW, cyclo[TYW]] (cyclo(Thr-Tyr-Trp)) | 2.23
